Laboratory results: patent US20150051257A1, “SULPHONAMIDE DERIVATIVES OF BENZYLAMINE FOR THE TREATMENT OF CNS DISEASES” (ADAMED SP. Z O.O, priority 2012, published 2015)

Columns and labels:
σ (non-selective) = assay: Radioligand binding assay, σ receptors; details: test compound 1×10^−6M; [3H]DTG; rat cerebral cortex
Protocol: (§1) Specific ligand binding to the receptors is defined as the difference between the total binding and the non-specific binding determined in the presence of an excess of unlabelled ligand.
(§2) The results are expressed as a percent of control specific binding ((measured specific binding/control specific binding)×100%) obtained in the presence of the test compounds. The compounds were tested for their affinity to receptors at a concentration of 1×10^−6M.
(§3) Conditions and methodology of in vitro tests are given by reference to the literature in Table 1, and the results of tests for representative compounds are given in Table 2 (dopaminergic receptors D2 and D3), in Table 3 (dopaminergic receptors D1 and D4.4), in Table 4 (serotoninergic receptors 5-HT1A, 5-HT2A, 5-HT6, 5-HT7), in table 5 (serotoninergic receptors 5-HT2C), in Table 6 (sigma o receptors), in Table 7 (adrenergic receptors α1, histaminergic receptors H1 and muscarinic receptors M3), in Table 8 (adrenergic receptors α2C) and in Table 9 (serotonin transporter receptors SERT).

α1 (non-selective) = assay: Radioligand binding assay, adrenergic α1 receptors; details: test compound 1×10^−6M; [3H]prazosin; rat cerebral cortex
Protocol: as §1, §2, §3

SERT (h) = target: T1, SERT (h) (Homo sapiens, UniProt P31645); assay: Radioligand binding assay, serotonin transporter (SERT); details: test compound 1×10^−6M; [3H]imipramine; human recombinant (CHO cells)
T1 construct: expressed in transfected cells; host or cells: CHO cells
T1 sequence (P31645 whole entry): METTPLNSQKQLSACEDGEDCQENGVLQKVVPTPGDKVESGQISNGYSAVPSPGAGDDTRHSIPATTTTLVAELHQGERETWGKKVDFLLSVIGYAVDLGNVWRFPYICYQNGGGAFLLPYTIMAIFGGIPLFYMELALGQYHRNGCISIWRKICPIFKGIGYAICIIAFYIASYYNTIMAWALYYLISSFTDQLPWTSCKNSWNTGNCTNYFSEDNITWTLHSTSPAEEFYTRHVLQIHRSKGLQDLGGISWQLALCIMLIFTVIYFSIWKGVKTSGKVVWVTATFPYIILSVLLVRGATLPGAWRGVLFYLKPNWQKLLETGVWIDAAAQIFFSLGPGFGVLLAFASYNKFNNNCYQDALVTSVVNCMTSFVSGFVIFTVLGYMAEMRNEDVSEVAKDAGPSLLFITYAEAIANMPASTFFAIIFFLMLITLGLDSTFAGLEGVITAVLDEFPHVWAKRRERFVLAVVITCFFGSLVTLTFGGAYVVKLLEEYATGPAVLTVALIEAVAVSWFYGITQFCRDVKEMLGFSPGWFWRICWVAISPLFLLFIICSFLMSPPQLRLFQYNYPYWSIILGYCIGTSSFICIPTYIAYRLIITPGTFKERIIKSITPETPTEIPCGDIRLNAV
Protocol: as §1, §2, §3

5-HT1A (h) = target: T2, 5-HT1A (h) (Homo sapiens, UniProt P08908); assay: Radioligand binding assay, serotoninergic receptor 5-HT1A; details: test compound 1×10^−6M; [3H]8-OH-DPAT; human recombinant (HEK-293 cells)
T2 construct: expressed in transfected cells; host or cells: HEK-293 cells
T2 sequence (P08908 1-422): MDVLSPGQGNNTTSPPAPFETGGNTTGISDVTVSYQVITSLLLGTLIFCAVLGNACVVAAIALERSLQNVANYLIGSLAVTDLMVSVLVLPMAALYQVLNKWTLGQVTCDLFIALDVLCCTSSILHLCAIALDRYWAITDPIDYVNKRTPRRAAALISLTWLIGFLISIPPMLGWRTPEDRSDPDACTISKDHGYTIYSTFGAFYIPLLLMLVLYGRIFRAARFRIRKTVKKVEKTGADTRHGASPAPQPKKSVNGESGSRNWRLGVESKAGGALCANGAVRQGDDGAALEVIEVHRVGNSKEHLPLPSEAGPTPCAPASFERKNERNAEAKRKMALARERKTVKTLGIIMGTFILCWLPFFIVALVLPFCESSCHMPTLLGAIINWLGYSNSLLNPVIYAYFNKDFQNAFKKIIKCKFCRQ
Protocol: as §1, §2, §3

D3 (h) = target: T3, D3 (h) (Homo sapiens, UniProt P35462); assay: Radioligand binding assay, dopaminergic receptor D3; details: test compound 1×10^−6M; [3H]methyl-spiperone; human recombinant (CHO cells)
T3 construct: expressed in transfected cells; host or cells: CHO cells
T3 sequence (P35462 whole entry): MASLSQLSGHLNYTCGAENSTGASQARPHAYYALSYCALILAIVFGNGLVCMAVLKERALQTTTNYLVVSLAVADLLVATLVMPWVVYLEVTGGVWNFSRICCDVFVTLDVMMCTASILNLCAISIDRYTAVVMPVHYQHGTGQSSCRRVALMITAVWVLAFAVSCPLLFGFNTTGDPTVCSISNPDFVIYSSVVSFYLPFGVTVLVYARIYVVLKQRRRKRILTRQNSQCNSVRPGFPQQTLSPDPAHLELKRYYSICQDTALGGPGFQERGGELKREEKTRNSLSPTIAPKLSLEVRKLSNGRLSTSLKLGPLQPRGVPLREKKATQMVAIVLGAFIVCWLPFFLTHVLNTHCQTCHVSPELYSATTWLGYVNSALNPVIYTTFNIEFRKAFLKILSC
Protocol: as §1, §2, §3

D1 (h) = target: T4, D1 (h) (Homo sapiens, UniProt P21728); assay: Radioligand binding assay, dopaminergic receptor D1; details: test compound 1×10^−6M; [3H]SCH 23390; human recombinant (CHO cells)
T4 construct: expressed in transfected cells; host or cells: CHO cells
T4 sequence (P21728 whole entry): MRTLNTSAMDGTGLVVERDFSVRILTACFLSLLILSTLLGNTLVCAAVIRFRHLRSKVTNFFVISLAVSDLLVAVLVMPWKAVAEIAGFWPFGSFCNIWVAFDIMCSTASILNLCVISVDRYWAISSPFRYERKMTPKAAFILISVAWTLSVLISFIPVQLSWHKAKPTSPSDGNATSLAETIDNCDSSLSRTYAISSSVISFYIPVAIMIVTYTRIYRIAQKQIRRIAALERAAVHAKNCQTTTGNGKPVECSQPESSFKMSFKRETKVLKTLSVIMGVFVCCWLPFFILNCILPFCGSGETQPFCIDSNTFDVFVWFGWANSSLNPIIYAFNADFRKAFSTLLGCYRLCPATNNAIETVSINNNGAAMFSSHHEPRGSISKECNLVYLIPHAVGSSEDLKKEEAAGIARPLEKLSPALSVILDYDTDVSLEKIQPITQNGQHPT
Protocol: as §1, §2, §3

5-HT7 (h) = target: T5, 5-HT7 (h) (Homo sapiens, UniProt P34969); assay: Radioligand binding assay, serotoninergic receptor 5-HT7; details: test compound 1×10^−6M; [3H]LSD; human recombinant (CHO cells)
T5 construct: expressed in transfected cells; host or cells: CHO cells
T5 sequence (P34969 whole entry): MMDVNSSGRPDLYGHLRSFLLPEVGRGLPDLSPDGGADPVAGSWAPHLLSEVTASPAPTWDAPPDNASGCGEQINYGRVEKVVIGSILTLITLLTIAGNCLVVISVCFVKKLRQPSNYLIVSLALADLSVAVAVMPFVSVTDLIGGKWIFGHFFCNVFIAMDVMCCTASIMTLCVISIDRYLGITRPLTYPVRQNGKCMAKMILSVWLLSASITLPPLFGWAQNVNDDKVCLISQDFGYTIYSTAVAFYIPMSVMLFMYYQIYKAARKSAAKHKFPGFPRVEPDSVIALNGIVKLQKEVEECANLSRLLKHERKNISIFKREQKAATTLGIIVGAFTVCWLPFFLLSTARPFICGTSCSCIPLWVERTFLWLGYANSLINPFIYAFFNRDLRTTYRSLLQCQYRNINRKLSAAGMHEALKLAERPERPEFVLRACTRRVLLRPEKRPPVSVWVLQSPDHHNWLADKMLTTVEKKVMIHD
Protocol: as §1, §2, §3

5-HT6 (h) = target: T6, 5-HT6 (h) (Homo sapiens, UniProt P50406); assay: Radioligand binding assay, serotoninergic receptor 5-HT6; details: test compound 1×10^−6M; [3H]LSD; human recombinant (CHO cells)
T6 construct: expressed in transfected cells; host or cells: CHO cells
T6 sequence (P50406 whole entry): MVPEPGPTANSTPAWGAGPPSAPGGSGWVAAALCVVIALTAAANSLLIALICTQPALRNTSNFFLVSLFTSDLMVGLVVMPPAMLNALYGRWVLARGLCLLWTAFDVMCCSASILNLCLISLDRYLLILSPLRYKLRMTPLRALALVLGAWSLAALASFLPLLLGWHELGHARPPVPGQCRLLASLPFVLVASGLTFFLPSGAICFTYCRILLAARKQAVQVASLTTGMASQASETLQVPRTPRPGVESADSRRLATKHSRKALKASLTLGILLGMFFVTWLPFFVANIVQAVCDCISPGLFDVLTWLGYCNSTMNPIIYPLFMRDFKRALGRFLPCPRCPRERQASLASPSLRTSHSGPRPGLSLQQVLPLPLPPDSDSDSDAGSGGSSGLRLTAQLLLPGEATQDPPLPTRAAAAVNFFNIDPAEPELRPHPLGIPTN
Protocol: as §1, §2, §3

α2C (h) = target: T7, α2C (h) (Homo sapiens, UniProt P18825); assay: Radioligand binding assay, adrenergic receptor α2C; details: test compound 1×10^−6M; [3H]RX 821002; human recombinant (CHO cells)
T7 construct: expressed in transfected cells; host or cells: CHO cells
T7 sequence (P18825 1-462): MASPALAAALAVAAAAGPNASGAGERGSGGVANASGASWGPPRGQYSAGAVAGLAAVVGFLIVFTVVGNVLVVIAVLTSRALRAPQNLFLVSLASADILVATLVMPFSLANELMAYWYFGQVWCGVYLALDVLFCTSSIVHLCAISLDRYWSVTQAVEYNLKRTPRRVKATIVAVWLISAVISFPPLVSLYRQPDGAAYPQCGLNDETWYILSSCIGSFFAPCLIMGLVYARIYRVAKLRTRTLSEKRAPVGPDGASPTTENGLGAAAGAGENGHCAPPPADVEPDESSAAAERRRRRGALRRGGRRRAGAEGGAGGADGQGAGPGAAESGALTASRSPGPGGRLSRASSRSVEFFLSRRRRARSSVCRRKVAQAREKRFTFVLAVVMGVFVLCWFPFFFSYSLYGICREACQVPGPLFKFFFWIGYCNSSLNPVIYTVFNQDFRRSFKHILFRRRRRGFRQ
Protocol: as §1, §2, §3

D2S (h) = target: T8, D2S (h) (Homo sapiens, UniProt P14416); assay: Radioligand binding assay, dopaminergic receptor D2; details: test compound 1×10^−6M; [3H]methyl-spiperone; human recombinant (HEK-293 cells)
T8 construct: expressed in transfected cells; host or cells: HEK-293 cells
T8 sequence (P14416 1-414 isoform P14416-2): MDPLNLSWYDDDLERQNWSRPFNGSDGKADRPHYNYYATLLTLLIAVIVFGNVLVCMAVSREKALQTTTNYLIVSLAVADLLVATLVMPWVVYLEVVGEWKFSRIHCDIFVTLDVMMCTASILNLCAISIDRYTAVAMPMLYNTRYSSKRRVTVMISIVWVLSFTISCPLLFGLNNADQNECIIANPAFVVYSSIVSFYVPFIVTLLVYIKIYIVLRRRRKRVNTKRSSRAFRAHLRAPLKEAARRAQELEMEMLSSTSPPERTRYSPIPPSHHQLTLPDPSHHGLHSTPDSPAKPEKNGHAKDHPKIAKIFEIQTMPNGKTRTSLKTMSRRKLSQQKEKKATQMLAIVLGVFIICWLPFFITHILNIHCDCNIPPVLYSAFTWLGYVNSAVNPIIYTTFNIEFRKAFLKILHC
Protocol: as §1, §2, §3

D4.4 (h) = target: T9, D4.4 (h) (Homo sapiens, UniProt P21917); assay: Radioligand binding assay, dopaminergic receptor D4.4; details: test compound 1×10^−6M; [3H]methyl-spiperone; human recombinant (CHO cells)
T9 construct: expressed in transfected cells; host or cells: CHO cells
T9 sequence (P21917 1-419): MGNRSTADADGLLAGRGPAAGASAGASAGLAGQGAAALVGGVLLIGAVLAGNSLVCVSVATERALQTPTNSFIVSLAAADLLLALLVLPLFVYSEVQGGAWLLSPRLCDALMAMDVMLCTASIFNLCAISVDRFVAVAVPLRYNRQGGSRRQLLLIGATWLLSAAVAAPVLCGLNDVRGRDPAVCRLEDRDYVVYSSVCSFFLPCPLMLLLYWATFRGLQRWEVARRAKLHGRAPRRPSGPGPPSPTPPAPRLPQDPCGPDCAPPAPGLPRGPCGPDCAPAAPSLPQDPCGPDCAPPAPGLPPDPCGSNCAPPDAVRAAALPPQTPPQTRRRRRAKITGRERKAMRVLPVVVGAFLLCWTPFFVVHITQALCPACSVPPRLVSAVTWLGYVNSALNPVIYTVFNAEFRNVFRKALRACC
Protocol: as §1, §2, §3

M3 (h) = target: T10, M3 (h) (Homo sapiens, UniProt P20309); assay: Radioligand binding assay, muscarinic M3 receptor; details: test compound 1×10^−6M; [3H]4-DAMP; human recombinant (CHO cells)
T10 construct: expressed in transfected cells; host or cells: CHO cells
T10 sequence (P20309 whole entry): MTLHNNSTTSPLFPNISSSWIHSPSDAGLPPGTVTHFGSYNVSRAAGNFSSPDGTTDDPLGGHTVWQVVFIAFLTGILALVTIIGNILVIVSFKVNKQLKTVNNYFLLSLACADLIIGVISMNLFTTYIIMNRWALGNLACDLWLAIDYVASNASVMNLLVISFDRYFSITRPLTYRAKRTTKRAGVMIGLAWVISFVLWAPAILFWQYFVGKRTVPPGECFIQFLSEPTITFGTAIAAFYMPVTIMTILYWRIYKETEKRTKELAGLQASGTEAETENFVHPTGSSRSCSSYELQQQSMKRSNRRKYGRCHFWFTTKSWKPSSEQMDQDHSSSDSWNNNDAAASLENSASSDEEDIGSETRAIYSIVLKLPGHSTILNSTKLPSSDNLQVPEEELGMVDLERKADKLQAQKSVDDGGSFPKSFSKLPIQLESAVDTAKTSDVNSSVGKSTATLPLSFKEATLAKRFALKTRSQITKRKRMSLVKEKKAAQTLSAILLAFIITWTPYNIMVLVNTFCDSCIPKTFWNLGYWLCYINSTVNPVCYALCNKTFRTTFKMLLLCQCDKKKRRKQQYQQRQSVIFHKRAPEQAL
Protocol: as §1, §2, §3

H1 (h) = target: T11, H1 (h) (Homo sapiens, UniProt P35367); assay: Radioligand binding assay, histaminergic H1 receptor; details: test compound 1×10^−6M; [3H]pyrilamine; human recombinant (HEK-293 cells)
T11 construct: expressed in transfected cells; host or cells: HEK-293 cells
T11 sequence (P35367 whole entry): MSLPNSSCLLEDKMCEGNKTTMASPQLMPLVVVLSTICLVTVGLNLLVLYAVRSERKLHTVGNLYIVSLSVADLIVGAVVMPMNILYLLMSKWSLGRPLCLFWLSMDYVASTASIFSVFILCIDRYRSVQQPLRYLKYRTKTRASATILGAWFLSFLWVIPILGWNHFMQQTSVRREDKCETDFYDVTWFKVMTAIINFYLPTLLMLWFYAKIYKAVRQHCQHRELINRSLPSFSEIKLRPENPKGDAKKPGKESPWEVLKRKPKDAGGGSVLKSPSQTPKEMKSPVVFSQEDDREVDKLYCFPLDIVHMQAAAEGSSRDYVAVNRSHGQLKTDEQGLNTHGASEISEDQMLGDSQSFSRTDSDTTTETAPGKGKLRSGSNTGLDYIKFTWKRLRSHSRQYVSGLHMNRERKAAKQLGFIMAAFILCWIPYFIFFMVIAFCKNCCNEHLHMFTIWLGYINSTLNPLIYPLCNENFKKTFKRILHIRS
Protocol: as §1, §2, §3

5-HT2C (h) = target: T12, 5-HT2C (h) (Homo sapiens, UniProt P28335); assay: Radioligand binding assay, serotoninergic receptor 5-HT2C; details: test compound 1×10^−6M; [3H]mesulergine; human recombinant (HEK-293 cells)
T12 construct: expressed in transfected cells; host or cells: HEK-293 cells
T12 sequence (P28335 33-458): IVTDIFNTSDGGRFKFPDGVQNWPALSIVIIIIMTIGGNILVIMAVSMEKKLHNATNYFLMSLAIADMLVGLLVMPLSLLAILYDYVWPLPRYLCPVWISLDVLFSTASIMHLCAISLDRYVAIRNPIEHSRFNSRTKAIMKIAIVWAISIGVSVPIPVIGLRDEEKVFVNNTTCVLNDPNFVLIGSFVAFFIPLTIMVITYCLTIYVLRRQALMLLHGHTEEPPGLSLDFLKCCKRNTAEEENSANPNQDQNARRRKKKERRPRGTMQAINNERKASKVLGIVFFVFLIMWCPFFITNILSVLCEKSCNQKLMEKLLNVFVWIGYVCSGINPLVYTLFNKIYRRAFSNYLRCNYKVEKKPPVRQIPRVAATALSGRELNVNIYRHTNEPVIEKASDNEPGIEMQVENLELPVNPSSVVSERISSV
Protocol: as §1, §2, §3

5-HT2A (h) = target: T13, 5-HT2A (h) (Homo sapiens, UniProt P28223); assay: Radioligand binding assay, serotoninergic receptor 5-HT2A; details: test compound 1×10^−6M; [3H]ketanserin; human recombinant (HEK-293 cells)
T13 construct: expressed in transfected cells; host or cells: HEK-293 cells
T13 sequence (P28223 whole entry): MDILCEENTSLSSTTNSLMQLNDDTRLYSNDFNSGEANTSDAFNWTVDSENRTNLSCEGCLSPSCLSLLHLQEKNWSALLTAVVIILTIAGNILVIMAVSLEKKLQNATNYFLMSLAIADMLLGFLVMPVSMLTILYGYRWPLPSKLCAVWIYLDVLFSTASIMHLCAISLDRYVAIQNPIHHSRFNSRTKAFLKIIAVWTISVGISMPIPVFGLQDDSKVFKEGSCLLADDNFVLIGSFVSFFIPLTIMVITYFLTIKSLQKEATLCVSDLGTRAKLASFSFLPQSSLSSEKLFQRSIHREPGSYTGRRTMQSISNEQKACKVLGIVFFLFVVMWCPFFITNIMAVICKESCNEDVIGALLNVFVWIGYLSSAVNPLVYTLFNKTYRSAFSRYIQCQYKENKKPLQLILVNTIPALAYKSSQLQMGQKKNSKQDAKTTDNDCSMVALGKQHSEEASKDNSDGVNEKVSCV
Protocol: as §1, §2, §3

Male CD-1 mice = assay: d-Amphetamine-induced locomotor hyperactivity in mice; format: in vivo; details: compound i.p., d-amphetamine s.c., immediately before the test, ambulation counted during 2 h
Protocol: Potential antipsychotic activity was tested for the representative compound 60 in mouse model of psychosis, involving the induction of locomotor hyperactivity by administering psychotomimetic substance—d-amphetamine. The ability of a test compound to remove that effect is a measure of potential antipsychotic activity.
Male CD-1 mice weighing 20-22 g derived from accredited animal facility localized at Medical College of Jagiellonian University were group-housed for 3-4 day period in polycarbonate Makrolon type 3 cages (dimensions 26.5×15×42 cm) in an environmentally controlled, experimental room (ambient temperature 22-20C; relative humidity 50-60%; 12:12 light:dark cycle, lights on at 8:00), in groups of 15. Standard laboratory food (Morigram, Agropol) and filtered water were freely available. On the day before experiments the equipment produces “white noise” was turned on for 30 minutes and mice or rats were weighted exact to 1 g. Animals were assigned randomly to treatment groups. […]
The locomotor activity was recorded with an Opto M3 multi-channel activity monitor (MultiDevice Software v.1.3, Columbus Instruments). Mice were individually placed in plastic cages (22×12×13 cm) and then the crossings of each channel (ambulation) were counted during 2 h with data recording every 5 minutes. […]

[1] = target: T14, hERG potassium channels (KCNH2 gene, expressed in CHO cells) (Homo sapiens, UniProt Q12809); assay: Ability to block hERG potassium channel (electrophysiology, IonWorks Quattro); format: cell-based; details: cloned hERG in CHO cells; test pulse +40 mV; concentration not given
T14 construct: expressed in transfected cells; host or cells: CHO cells
Protocol: Ability to Block hERG Potassium Channel Ability to block hERG potassium channels was determined using the electrophysiological method and cloned hERG potassium channels (KCNH2 gene, expressed in CHO cells) as biological material. The effects were evaluated using IonWorks™ Quattro system (MDS-AT).
hERG current was elicited using a pulse pattern with fixed amplitudes (conditioning pre-pulse: −80 mV for 25 ms; test pulse: +40 mV for 80 ms) from a holding potential of 0 mV. hERG current was measured as a difference between the peak current at 1 ms after the test step to +40 mV and the steady-state current at the end of the step to +40 mV.
Data acquisition and analyses were performed using the lonWorks Quattro™ system operation software (version 2.0.2; Molecular Devices Corporation, Union City, Calif.). Data were corrected for leak current.
The hERG block was calculated as: % Block=(1−I TA/IControl)×100%, where IControl and ITA were the currents elicited by the test pulse in control and in the presence of a test compound, respectively.

Row | Compound | σ [%] (σ (non-selective)) | α1 [%] (α1 (non-selective)) | SERT [%] (SERT (h)) | 5-HT1A [%] (5-HT1A (h)) | D3 [%] (D3 (h)) | D1 [%] (D1 (h)) | 5-HT7 [%] (5-HT7 (h)) | 5-HT6 [%] (5-HT6 (h)) | α2C [%] (α2C (h)) | D2 [%] (D2S (h)) | D4.4 [%] (D4.4 (h)) | M3 [%] (M3 (h)) | H1 [%] (H1 (h)) | 5-HT2C [%] (5-HT2C (h)) | 5-HT2A [%] (5-HT2A (h)) | MED (Minimum Effective Dose) (Male CD-1 mice) | hERG [%] (% Block) [1]
1 | CN(CCCc1noc2cc(F)ccc12)Cc1cccc(NS(=O)(=O)c2ccc(C(C)(C)C)cc2)c1 [Compound 72, 4-tert-butylo-N-[3-[[3-(6-fluoro-1,2-benzoxazol-3-yl)propylmethylamino]methyl]-phenyl]benzenesulphonamide] | 80% | 77% | 42% | 30% | 63% | 45% | 93% | 99% | 81% | 93% | 60% | 25% | 64% | 23% | 87% |  | 
2 | CN(CCCc1noc2cc(F)ccc12)Cc1cccc(NS(=O)(=O)c2ccccc2)c1 [Compound 60, N-[3-[[3-(6-fluoro-1,2-benzoxazol-3-yl)propylmethylamino]methyl]phenyl]benzenesulphonamide] |  |  |  |  |  |  |  |  |  |  |  |  |  |  |  | 10 mg/kg | 6%
3 | N-[3-[[3-(6-fluoro-1,2-benzoxazol-3-yl)propylamino]methyl]phenyl]naphthalene-1-sulphonamide [Compound 54] | 50% | 48% | 42% | 43% | 76% | 27% | 90% | 88% | 32% | 94% | 54% | 2% | 7% | 17% | 80% |  | 
